Results published in article PMC6983213, “Combining Chalcones with Donepezil to Inhibit Both Cholinesterases and Aβ Fibril Assembly” (Molecules, 2019).
“Also recorded” adds a separate entry of the source. Like-named read-outs stand apart in the source and are kept apart here.

Tests used:
F42 = Aβ(1–42) fibrils = target: T1, F42 = Aβ(1–42) fibrils (Homo sapiens, UniProt P05067); assay: 3H-PIB binding competition/titration, Aβ(1–42) fibrils; conditions: compounds at 10 μM (titration 10 to 0.03 μM); 1.2 nM 3H-PIB
T1 construct: Aβ(1–42) (cat # A-1167-02) purchased from rPeptide; purchased rPeptide (Watkinsville, GA, USA) A-1167-02
Protocol: (§1) Prior to being transferred to screw-top polypropylene vials and being stored at −75 °C, these 1 mg/mL fibril suspensions were further diluted with an equal volume of the buffer solution.
(§2) The plates were sealed and incubated for 3 h at 22 °C, without shaking, and transferred to a 96-well Millipore Multiscreen HTS Hi Flow FB (GF/B) filter plate, and filtered with a multi-well plate vacuum manifold (Millipore Corporation, Bedford, MA, USA). […] Specific binding of ^3H-PIB was determined by subtracting the non-specific binding determined in the presence of 1 μM BTA-1.
(§3) The titration of compounds with ^3H-PIB bound to Aβ(1–40) and Aβ(1–42) fibrils and AD brain extract (ADPBC) were performed to further determine the competition of our compounds for the ^3H-PIB binding site of the AD brain. The experiments were performed as described in the ^3H-PIB binding assays of Section 3.4.3 with the use of a concentration range of 10 to 0.03 μM for the compounds tested.

[1] = target: T2, N-biotinyl-Aβ(1–42) (bioAβ42) oligomer assembly (Homo sapiens, UniProt P05067); assay: biochemical; conditions: for bioAβ42 oligomer assembly inhibition (in words): 1.56 to 50 μM, alone or in 1:1 / 1:1:1 mixtures; for EC50: concentration range 50 to 1.56 μM, duplicate, n = 3 independent experiments, ± SDEV
T2 construct: N-biotinyl Aβ(1–42) (bioAβ42) was purchased from Anaspec; purchased Anaspec (Fremont, CA, USA) AS-23523-05
Protocol: We first examined the effect of the synthesized 1,3- and 1,4-chalcone-donepezil hybrids 15a–15f and 16a–16f on the assembly of N-biotinyl-Aβ(1–42) (bioAβ42) monomers into oligomers. We quantified the assembly of bioAβ42 into soluble oligomers by using an ELISA assay in which the soluble oligomers were captured on NeutrAvidin^TM-coated ELISA plates and detected with streptavidin-horseradish peroxidase and colorimetric readout (Figure 3).
The plates were then stored in their blocked form at 4 °C prior to use for the oligomer assembly and dissociation assays.
The assembly of bioAβ42 into soluble oligomers was quantified with an ELISA assay in which the soluble oligomers were captured with the NeutrAvidin^TM coating the ELISA plates. The bound oligomers were detected with streptavidin-horseradish peroxidase (SA-HRP). […] Below, please find the details of the three steps (Steps 1–3) used for the oligomer assembly assay.
Step 1: Preparation of monomeric bioAβ42. For a low background, it was essential to rigorously pretreat the bioAβ42 peptide to convert (disaggregate) the multimeric species that form upon storage in the solid state, or even frozen in 1,1,1,3,3,3-hexafluoroisopropanol (HFIP) to monomers. The required amount of stock bioAβ42 peptide (0.5 mg dissolved at 1 mg/mL in HFIP) was pipetted into a polypropylene microfuge tube, dried to a thin film under a gentle air or N2 stream, and then disaggregated for 10 min at rt in neat trifluoroacetic acid (TFA). After removal of the TFA by drying with an air or N2 stream, DMSO was added to produce a 2.3 μg/mL (50×) stock solution.
Step 2: Assembly of bioAβ42 oligomers. 2 μL of disaggregated monomeric 50× bioAβ42 peptide in DMSO (prepared in Step 1) was pipetted into the bottom of each well of a polypropylene 96-well plate. […] The 96-well plate was sealed and incubated at rt for 30 min without shaking. The bioAβ42 oligomer assembly was stopped by adding 50 μL of 0.3% Tween 20 v/v in distilled H2O.
Step 3: Measurement of bioAβ42 oligomers. […] The 96-well plate was then sealed and incubated for 2 h while shaking at 150 rpm at rt. […] The plate was sealed and incubated for 1 h while shaking at 150 rpm at rt. The plate was washed as previously described, and 100 μL/well of HRP substrate (i.e., 1 mM:0.07 mM/tetramethylbenzidine:H2O2) in 0.2 M citrate buffer, pH 4.0 was added. The plate was incubated at rt for 5 to 10 min and the reaction was stopped by the addition of 100 μL/well of 1% v/v H2SO4. The absorbance of each well was read at 450 nm with a BioTek HT Synergy plate reader.
(§4) The effects of various chalcones, donepezil, donepezil analogue, and 1,3-chalcone-donepezil hybrids were tested for their ability to inhibit the bioAβ42 oligomer assembly and dissociation either alone or in combination with each other. The experiments were performed as described in the biotinyl-Aβ(1–42) (bioAβ42) oligomer assembly and dissociation assays section.

[2] = target: EeAChE (AChE from Electrophorus electricus) (Electrophorus electricus, UniProt O42275); assay: biochemical; conditions: for IC50: Ellman's method, pH 8.0, 25 °C, triplicate, ± SDEV, read-out: Inhibition (IC50) of EeAChE; for selectivity index (SI): based on IC50 values against EeAChE and EfBChE
Protocol: (§5) The ChE inhibition assays were performed as previously described. The 1,3- and 1,4-chalcone-donepezil hybrids (0.1 nM to 100 μM) were dissolved in sodium phosphate buffer ((100 μL), 0.1 M, pH 8.0). […] All assays were performed in triplicate. The data was plotted as a sigmoidal curve and IC50 values were calculated using SigmaPlot 14.0 (Systat Software, San Jose, CA, USA).

[3] = system: ADPBC (Alzheimer's disease PIB binding complex); assay: 3H-PIB binding competition/titration, ADPBC; design: species or system Human; conditions: compounds at 10 μM (titration 10 to 0.03 μM); 1.2 nM 3H-PIB
Protocol: Human AD brain frontal cortical tissue (from the Sanders-Brown Center on Aging Alzheimer’s Disease Center Brain Bank at the University of Kentucky) was processed as follows.
as §2, §3

F40 = Aβ(1–40) fibrils = target: T3, F40 = Aβ(1–40) fibrils (Homo sapiens, UniProt P05067); assay: 3H-PIB binding competition/titration, Aβ(1–40) fibrils; conditions: compounds at 10 μM (titration 10 to 0.03 μM); 1.2 nM 3H-PIB
T3 construct: lyophilized NH4OH-treated Aβ(1–40) (cat # A-1157-02); purchased rPeptide (Watkinsville, GA, USA) A-1157-02
Protocol: as §1, §2, §3

[4] = target: EfBChE (BChE from Equus ferus) (Equus caballus, UniProt P81908); assay: biochemical; assay type: biochemical; conditions: for IC50: Ellman's method, pH 8.0, 25 °C, triplicate, ± SDEV, read-out: Inhibition (IC50) of EfBChE; for inhibition of EfBChE better than that of EeAChE: from IC50 values
Protocol: as §5

[5] = target: T4, preformed bioAβ42 oligomers (Homo sapiens, UniProt P05067); assay: bioAβ42 oligomer dissociation assay (NeutrAvidin ELISA); assay type: biochemical; conditions: 0.01 to 50 μM; ~18 h; alone or in 1:1 / 1:1:1 mixtures
T4 construct: N-biotinyl Aβ(1–42) (bioAβ42) was purchased from Anaspec; purchased Anaspec (Fremont, CA, USA) AS-23523-05
Protocol: Dissociation of preformed oligomers of bioAβ42 was measured by pretreating biotinylated oligomers with solvent controls or compounds for a period of time, capturing them with NeutrAvidin^TM on ELISA plates, and detecting the remaining bound oligomers with SA-HRP [77] as described above. Below, please find the details of the two steps (Steps 1 and 2) used for the oligomer dissociation assay.
Step 1: Preformed bioAβ42 oligomers (sufficient for 400 wells). In total, 1 μg of bioAβ42 peptide (1 mg/mL dissolved in HFIP) was pipetted into 20 μL of HFIP in a polypropylene microfuge tube, and dried to a thin film under a gentle air or N2 stream. The film was dissolved in 250 μL of DMSO and vortexed. […] After incubation at rt for 1 h with intermittent vortexing, 0.375 mL of 100 mM Tween 20 (10% v/v) in distilled H2O was added to make the final Tween 20 concentration 0.3% v/v. The preformed oligomers were mixed by inversion and aliquoted for storage at −75 °C. Note: Multiple freeze-thaw cycles should be avoided.
Step 2: Oligomer dissociation assay. […] Then, 25 μL of the preformed bio42 oligomers adjusted to 0.6% v/v Tween 20 was pipetted into each well of a polypropylene 96-well plate. […] The plates were sealed and shaken at 150 rpm overnight at rt. After 18 h of incubation, the plates were centrifuged at 1000× g for 10 min and a 100-μL aliquot was transferred from each well into a well of an NA-coated ELISA plate that had been blocked with Tween 20. The oligomer content of that aliquot was measured as described for the bioAβ42 oligomer assembly assay.
as §4

[6] = read-out: EC50 against bioAβ42 oligomer assembly

Sequence of EfBChE (BChE from Equus ferus) (P81908 whole entry): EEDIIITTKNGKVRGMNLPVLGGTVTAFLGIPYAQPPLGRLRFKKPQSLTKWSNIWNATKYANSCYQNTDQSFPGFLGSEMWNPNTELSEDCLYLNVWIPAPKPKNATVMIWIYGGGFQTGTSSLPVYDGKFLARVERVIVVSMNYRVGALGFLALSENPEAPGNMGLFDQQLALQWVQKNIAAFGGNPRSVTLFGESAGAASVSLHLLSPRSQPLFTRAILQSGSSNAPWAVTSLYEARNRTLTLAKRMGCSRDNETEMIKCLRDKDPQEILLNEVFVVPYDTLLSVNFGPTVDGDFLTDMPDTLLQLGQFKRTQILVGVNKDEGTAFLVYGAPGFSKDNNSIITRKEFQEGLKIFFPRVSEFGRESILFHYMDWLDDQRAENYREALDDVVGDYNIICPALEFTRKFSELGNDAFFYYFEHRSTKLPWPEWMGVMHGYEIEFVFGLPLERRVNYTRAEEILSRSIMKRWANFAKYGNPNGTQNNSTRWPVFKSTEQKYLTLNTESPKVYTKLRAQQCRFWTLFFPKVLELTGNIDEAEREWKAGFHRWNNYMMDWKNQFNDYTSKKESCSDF
T2 sequence (P05067 672-713): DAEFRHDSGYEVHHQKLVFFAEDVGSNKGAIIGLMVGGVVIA
T4 sequence (P05067 672-713): as above
Sequence of EeAChE (AChE from Electrophorus electricus) (O42275 24-633): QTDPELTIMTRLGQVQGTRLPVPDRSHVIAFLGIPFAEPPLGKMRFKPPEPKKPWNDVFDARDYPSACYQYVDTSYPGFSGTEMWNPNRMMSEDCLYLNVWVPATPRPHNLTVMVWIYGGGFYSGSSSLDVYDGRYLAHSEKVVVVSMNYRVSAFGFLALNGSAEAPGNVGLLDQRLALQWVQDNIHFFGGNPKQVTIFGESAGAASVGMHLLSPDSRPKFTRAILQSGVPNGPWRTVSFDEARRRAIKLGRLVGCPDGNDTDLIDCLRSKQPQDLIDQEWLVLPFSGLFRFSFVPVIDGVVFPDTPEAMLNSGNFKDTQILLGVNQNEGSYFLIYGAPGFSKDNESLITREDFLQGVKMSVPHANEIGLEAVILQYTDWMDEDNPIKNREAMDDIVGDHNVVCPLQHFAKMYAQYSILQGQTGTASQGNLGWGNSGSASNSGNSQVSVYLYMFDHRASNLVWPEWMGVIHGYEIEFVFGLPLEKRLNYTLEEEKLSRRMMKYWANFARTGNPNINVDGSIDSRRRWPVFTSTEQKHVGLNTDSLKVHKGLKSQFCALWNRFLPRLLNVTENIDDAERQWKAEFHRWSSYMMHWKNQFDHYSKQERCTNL
T3 sequence (P05067 672-711): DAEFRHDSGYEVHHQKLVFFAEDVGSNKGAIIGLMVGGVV
T1 sequence (P05067 672-713): as the sequence (P05067 672-713) above

Row | Compound | displacement of 3H-PIB from F42 (in words) (F42 = Aβ(1–42) fibrils) | bioAβ42 oligomer assembly inhibition (in words) [1] | EC50 ([1]; EC50 against bioAβ42 oligomer assembly) | IC50 [2] | selectivity index (SI) [2] | displacement of 3H-PIB from ADPBC (in words) [3] | displacement of 3H-PIB from F40 (in words) (F40 = Aβ(1–40) fibrils) | IC50 [4] | inhibition of EfBChE better than that of EeAChE [4] | EC50 [1, 6] | dissociation of preformed bioAβ42 oligomers (in words) [5]
1 | COc1cc2c(cc1OCCOc1cccc(C(=O)/C=C/c3ccc(N(C)C)cc3)c1)C(=O)C(CC1CCN(Cc3ccccc3)CC1)C2 (stereo not shown) [15a, (E)-2-((1-Benzylpiperidin-4-Yl)Methyl)-6-(2-(3-(3-(4-(Dimethylamino)Phenyl)Acryloyl)Phenoxy)Ethoxy)-5-Methoxy-2,3-Dihydro-1H-Inden-1-One] | better binding to F40, F42, and ADPBC than 15c, 15d, 15e, and 15f | successful in preventing the self-assembly of bioAβ42; also recorded: better inhibition of bioAβ42 oligomer assembly | 4830 ± 470 nM | 1020 ± 330 nM | 0.02 | better binding to F40, F42, and ADPBC than 15c, 15d, 15e, and 15f | better binding to F40, F42, and ADPBC than 15c, 15d, 15e, and 15f | 20 ± 2 nM | 51 fold |  | 
2 | COc1cc2c(cc1OCCCCOc1cccc(C(=O)/C=C/c3ccc(N(C)C)cc3)c1)C(=O)C(CC1CCN(Cc3ccccc3)CC1)C2 (stereo not shown) [15b, (E)-2-((1-Benzylpiperidin-4-Yl)Methyl)-6-(4-(3-(3-(4-(Dimethylamino)Phenyl)Acryloyl)Phenoxy)Butoxy)-5-Methoxy-2,3-Dihydro-1H-Inden-1-One] | better binding to F40, F42, and ADPBC than 15c, 15d, 15e, and 15f | better inhibition of bioAβ42 oligomer assembly |  | 650 ± 140 nM | 0.05 | better binding to F40, F42, and ADPBC than 15c, 15d, 15e, and 15f | better binding to F40, F42, and ADPBC than 15c, 15d, 15e, and 15f | 30 ± 10 nM | 22 fold | 4100 ± 170 nM | 
3 | CN(C)c1ccc(/C=C/C(=O)c2cccc(O)c2)cc1 [compound 3, (E)-3-(4-(Dimethylamino)Phenyl)-1-(3-Hydroxyphenyl)Prop-2-En-1-One] |  | did not inhibit bioAβ42 assembly |  |  |  |  |  |  |  | > 50000 nM | did not dissociate the preformed oligomers
4 | CN(C)c1ccc(/C=C/C(=O)c2cccc(OCCO)c2)cc1 [compound 17, (E)-3-(4-(Dimethylamino)Phenyl)-1-(3-(2-Hydroxyethoxy)Phenyl)Prop-2-En-1-One] |  | did not inhibit bioAβ42 assembly |  |  |  |  |  |  |  |  | did not dissociate the preformed oligomers
5 | COc1cc2c(cc1OCCO)C(=O)C(CC1CCN(Cc3ccccc3)CC1)C2 (stereo not shown) [compound 20, 2-((1-Benzylpiperidin-4-Yl)Methyl)-6-(2-Hydroxyethoxy)-5-Methoxy-2,3-Dihydro-1H-Inden-1-One] |  | did not inhibit bioAβ42 assembly |  |  |  |  |  |  |  |  | did not dissociate the preformed oligomers
